{
  "source": "patent US20070117864A1",
  "about": "“Composition for preventing and treating hepatoma” (Tokyo University of Agr. & Tech. TLO Co., Ltd., priority 2003, published 2007)",
  "key": {"AH109A cells": {"test_system": "AH109A cells", "assay": "in vitro invasion assay of AH109A cells beneath mesothelial cell (M-cell) monolayer", "assay_type": "cell-based, rat", "method": "The tumor invasion activity was measured using a partially modified version (Miura Y., Shiomi H., Sakai F., and Yagasaki K. 1997 Assay systems for screening food components that have anti-proliferative and anti-invasive activity to rat ascites hepatoma cells: In vitro and ex vivo effects of green tea extract. Cytotechnology 23: 127-132) of the in vitro invasion assay method of Akedo et al (Akedo H, Shinkai K, Mukai M, Mori Y, Tateishi R, Tanaka K, Yamamoto R, Morishita T. Interaction of rat ascites hepatoma cells with cultured mesothelial cell layers: a model for tumor invasion. Cancer Res. 1986 May; 46(5):2416-22).\nMesothelial cells (M-cells) directly prepared from rat mesenteries to culture were cultured for 7 to 10 days until a confluent monolayer was formed, and subsequently, the medium was changed to 3 ml of the respective experimental media. AH109A cells were overlayed onto the mesothelial cells at the density of 2.4×10^4 cells, and were gently agitated, and were cultured in a CO2 incubator. […] The numbers of cells and numbers of colonies of the AH109A cells that had infiltrated beneath the mesothelial cell monolayer were counted in 10 places of 2-mm square divisions selected at random for 1 dish, and the mean values of the numbers obtained by calculating these counts per square centimeter were taken as an index of the tumor invasion activity. […]"}, "[1]": {"assay": "food intake, body weight gain and liver weight in hepatoma-bearing rats", "assay_type": "in vivo, rat", "conditions": "for Body weight gain: mean ± SEM of 11 rats", "method": "(§1) Male Donryu rats of four weeks old were purchased from NRC Haruna, Gumma, Japan, and were preliminarily fed for 6 days in quintuple cages in a room with a controlled environment with light period of 8:00 to 20:00, room temperature of 22±1° C., and relative humidity of 60±5%. For the first 3 days, the animals were fed ad libitum with a stock pellet diet (CE-2; CLEA Japan, Tokyo), and for the next 3 days, they were fed a basal diet containing 20% milk casein (20C) (Table 1) ad libitum together with tap water in a glass container. Following the completion of this preparatory raising, the rats were divided into three groups (11 animals per group) with equal average body weights of the respective groups were equal, and 1.0×10^7 of AH109A cells suspended in PBS (−) were transplanted in the back of all the rats. From the time immediately after transplantation, in the respective experimental groups, the animals were fed the experimental diets shown in Table 2. During the experimental period, the body weight, food intake and solid tumor size (sum of length, width and height) were measured everyday. On the day that the animals were killed, animals were deprived of experimental diets at 9:00, but freely given water until they were killed 4 hours later. Blood was collected from carotid, and the liver and solid tumors were excised. The collected blood was allowed to stand for approximately 2 hours at room temperature, and then centrifuged for 10 minutes at 3000 rpm (1750×g), 4° C., to obtain serum. This blood serum was frozen and stored at −20° C. The livers and solid tumors were washed with physiological saline, blotted on filter paper, and weighed. Furthermore, feces from the 19th to 21st days after transplantation were collected, and these feces were frozen and stored at −20° C. for the measurement of the amounts of steroids excreted from the body."}, "[2]": {"assay": "serum lipid levels in hepatoma-bearing rats", "assay_type": "in vivo, rat", "conditions": "for Serum lipid level (VLDL + LDL)-Cholesterol (B): difference between T-Ch and HDL-Ch; for Serum lipid level (VLDL + LDL)-Cholesterol (B) / AI (B/A), atherogenic index / Serum lipid level HDL-Cholesterol (A) / Serum lipid level Total Cholesterol / Serum lipid level Triglyceride: mean ± SEM of 11 rats", "method": "as §1, with “body. Serum cholesterol (Ch) and triglyceride (TG) concentration was measured. Total cholesterol (T-Ch) level, the high-density-lipoprotein (HDL-Ch) level (which is the supernatant fraction obtained by precipitating very-low-density-lipoprotein+low-density-lipoprotein ((VLDL+LDL)-Ch fractions) by the precipitation method using phosphotungstic acid were measured. The (VLDL+LDL)-Ch level was taken as the difference between the T-Ch and the HDL-Ch levels. Atherogenic index (AI: (VLDL+LDL)-Ch/HDL-Ch ratio) was calculated as an index of atherogenesis.” for “body.”"}, "[3]": {"conditions": "ENL diet groups versus control diet group"}},
  "note": "Marks after values point to notes of the source that are not given here.",
  "data": [
    {"compound": "O=C1OCC(Cc2cccc(O)c2)C1Cc1cccc(O)c1", "note": "(stereo not drawn) [Enterolactone, enterolactone]", "values": [
      {"measurement": "ENL concentration at which cell toxicity was seen in the M-cells of the invasion assay system", "setting": "AH109A cells; M-cells in tumor invasion assay", "result": "≥ 25", "unit": "µM"},
      {"measurement": "effect on tumor invasion of AH109A cells", "setting": "AH109A cells; in vitro, 24 hours on M-cell monolayer", "result": "dose-dependent inhibitory effect"},
      {"measurement": "body weight", "setting": "[1]; 100 ppm ENL ingestion group versus control", "result": "significant increase"},
      {"measurement": "Body weight gain", "setting": "[1]; diet 10 ppm", "result": "158 ± 8^a g/21 days"},
      {"measurement": "Body weight gain", "setting": "[1]; diet 100 ppm", "result": "171 ± 4^b g/21 days"},
      {"measurement": "(VLDL+LDL)-Ch in the blood serum", "setting": "[2]; [3]", "result": "decreased significantly in a dose-dependent manner"},
      {"measurement": "AI value, ratio of (VLDL+LDL)-Ch to HDL-Ch", "setting": "[2]; [3]", "result": "tendency to decrease"},
      {"measurement": "HDL-Ch in the blood serum", "setting": "[2]; ENL diet groups versus control diet group, not significant", "result": "tendency increase"},
      {"measurement": "Serum lipid level (VLDL + LDL)-Cholesterol (B)", "setting": "[2]; diet 10 ppm", "result": "0.68 ± 0.12^b mmol/L"},
      {"measurement": "AI (B/A), atherogenic index", "setting": "[2]; diet 10 ppm", "result": "0.48 ± 0.09"},
      {"measurement": "Serum lipid level HDL-Cholesterol (A)", "setting": "[2]; diet 10 ppm", "result": "1.45 ± 0.07", "unit": "mmol/L"},
      {"measurement": "Serum lipid level Total Cholesterol", "setting": "[2]; diet 10 ppm", "result": "2.13 ± 0.14", "unit": "mmol/L"},
      {"measurement": "Serum lipid level Triglyceride", "setting": "[2]; diet 10 ppm", "result": "0.98 ± 0.06", "unit": "mmol/L"},
      {"measurement": "Serum lipid level (VLDL + LDL)-Cholesterol (B)", "setting": "[2]; diet 100 ppm", "result": "0.67 ± 0.08^b mmol/L"},
      {"measurement": "AI (B/A), atherogenic index", "setting": "[2]; diet 100 ppm", "result": "0.41 ± 0.05"},
      {"measurement": "Serum lipid level HDL-Cholesterol (A)", "setting": "[2]; diet 100 ppm", "result": "1.63 ± 0.06", "unit": "mmol/L"},
      {"measurement": "Serum lipid level Total Cholesterol", "setting": "[2]; diet 100 ppm", "result": "2.30 ± 0.12", "unit": "mmol/L"},
      {"measurement": "Serum lipid level Triglyceride", "setting": "[2]; diet 100 ppm", "result": "0.93 ± 0.06", "unit": "mmol/L"}
    ]}
  ]
}
